# In patent US20070015138A1, “Methods for identifying agents and conditions that modulate neurogenesis” (BrainCells, Inc., priority 2005, published 2007):
# Entries after “also recorded” stand apart in the source; their conditions may differ. Read-outs that look alike come from different tables or passages of the source.
# Assays:
# [1] = tested on: cultured human neural stem cells (hNSCs); test: Automated differentiation assay using monolayer cultures, astrocyte lineage (GFAP staining per Hoechst-counted cell); assay type: cell-based; conditions: for effect on differentiation along an astrocyte lineage (astrogenesis), agent alone: normalized to astrocyte positive control
# Description: (§1) Cells were cultured in mitogen free test media or exposed to differentiating agents as described herein immediately upon plating of cells. Stable, differentiation-compatible culture may be used with automated equipment (like Perkin Elmer Evolution P3, Perkin Elmer Multiprobe II Plus and Bio-Tek ELx405 Select CW as non-limiting examples) to replace 50% of media with newly prepared media and differentiation agent between 3 to 4 days after commencement of the experiment.
# (§2) Measurement of the resulting NSC differentiation may be performed by fixation and staining as described herein and subsequent use of automated equipment (InCell Analyzer high throughput imaging system) to take multiple pictures per well, at multiple wavelengths. Quantification of neuronal differentiation was performed by measuring the amount of Tuj1 staining and dividing the number by the number of cells as determined through automated counting of Hoechst stained cell nuclei. Quantification of astocytic differentiation was performed by measuring the amount of GFAP staining and dividing the number by the number of cells as determined through automated counting of Hoechst stained cell nuclei. […] An agent's effect on astrocyte or oligodendrocyte differentiation can be determined in a similar manner using other cell type specific antibodies, examples of which include GFAP (astrocytes), NF-200 (neurons), and O1 and O4 (oligodendrocytes).
# [2] = tested on: cultured human neural stem cells (hNSCs); test: Automated differentiation assay using monolayer cultures, neuronal lineage (Tuj1 staining per Hoechst-counted cell); assay type: cell-based; conditions: for effect on differentiation along a neuronal lineage, agent by itself / concentration at which the agent by itself affected neuronal differentiation: no constitutive factor; for effect on differentiation along a neuronal lineage, agent by itself: normalized to neuronal positive control; for effect on neuronal differentiation, AMPA combined with M6: AMPA about 3 nM to about 10 μM plus 10 μM M6 (cyclo-(Pro-Gly)), FIG. 5; for EC50: Homo sapiens, Neural stem cell
# Description: as §1, §2
# [3] = tested on: human NSCs cultured as monolayers in 96-well plates; conditions: DMSO vehicle max 0.3%, FIG. 8
# Description: Briefly, cells were cultured as described in Example 5 with the presence of histamine. The histamine was dissolved in DMSO as a vehicle, and cells were exposed to a maximum concentration of 0.3% vehicle. Cell number was determined by fixation and exposure of cells to Hoechst stain. Image acquisition was automated with the use of an InCell Analyzer 1000, and the number of cells determined by automated counting of stained nuclei. […] (see FIG. 8).
# Toxic effects of agents can be determined in a similar manner. NSCs were exposed to BAY-60-7550 as described above and cell number was quantified.
# [4] = tested on: Human NSCs plated as monolayers
# Description: Human NSCs maintained as neurospheres are plated as monolayers on laminin/poly-L-lysine coated plates and assayed for proliferation and/or differentiation, as described in Examples 3 and 4, except that the test media is modified to include one or more neurotransmitters at various concentrations to facilitate detection of neurogenesis modulating agents. […] Proliferation is measured as the mean cell intensity per microscopic field of view, with the mean cell intensity for control experiments subtracted. Data is plotted as a dose response curve of dopamine with and without 2 independent concentrations of 5-HTP.
# [5] = tested on: human NSCs in monolayer culture; test: Automated proliferation (growth or trophism) assay using monolayer cultures, test media with mitogens; assay type: cell-based; conditions: control conditions, across a range of concentrations; FIG. 1B
# Description: Sterile, tissue culture treated, clear bottom 96-well plates (e.g., Costar 3712) are coated 10 μg/ml poly-L-lysine and 50 μg/ml mouse Laminin, as described in Example 2. 10-15 neurospheres in maintenance media (see, Example 2) are transferred (estimated at 100,000 cells/sphere) to an eppendorf tube and enzymatically dissociated as described in Example 2. Approximately 50,000 cells are plated per 100 μl/well. The cells are allowed to attach by incubating for approximately one hour, and 100 μl/well of test compounds are added. […] Compounds are prepared using Perkin-Elmer MultiPROBE II PLUSHT EX (Protocol 8-point HumanCRC96-well) in test media (30% Hams F12 (Gibco 11765-062), 70% DMEM (Gibco 11965-118), 1% PSA (Gibco-BRL 15420-062), 1% N2 (Gibco-BRL 17502-048), 20 ng/ml EGF (Sigma E9644), 10 ng/ml LIF (Chemicon LIF100), 20 ng/ml bFGF (R and D 233-FB) and 5 μg/ml heparin (Sigma H3149)).
# Each plate contains controls containing test media (positive control) and test media without growth factors (negative control). Plates are incubated at 37° C. and 5% CO2 for a total of 7 days. At day 4, the cell plates are aspirated and fresh compound/media is added. After incubation, the wells are washed 1× with 0.1M Tris-Buffered Saline (TBS), and incubated at room temperature for 30 minutes with 100 μl/well of Fixing/Nuclear staining solution (8 μg/ml Hoechst 33342 and 3.7% Formaldehyde in 0.1M TBS). […]
molecule,measurement,setting,value
O=C1CC2(CCCC2)CC(=O)N1CCCCN1CCN(c2ncccn2)CC1 [buspirone],"effect on differentiation along an astrocyte lineage (astrogenesis), agent alone",[1],promotes differentiation into both neurons and astrocytes
same,"effect on differentiation along a neuronal lineage, agent by itself",[2],promotes differentiation into both neurons and astrocytes
COC(=O)C(c1ccccc1)C1CCCCN1 (stereo not drawn) [methylphenidate],concentration at which the agent by itself affected neuronal differentiation,[2],greater than 1 μM
same,"effect on differentiation along a neuronal lineage, agent by itself",[2],only a slight effect
same,effect on neuronal differentiation in combination with dopamine as constitutive factor,[2]; plus 10 μM dopamine,significantly enhanced the degree of neuronal differentiation
COc1ccc2[nH]cc(CCNC(C)=O)c2c1 [melatonin],"effect on astrocyte differentiation, buspirone with melatonin","[1]; increasing melatonin added to buspirone concentration-response curve, FIG. 11 lower panel",repression of astrocytes
same,"effect on differentiation along an astrocyte lineage (astrogenesis), agent alone",[1],no effect on astrogenesis
same,"effect on neuronal differentiation, buspirone with melatonin","[2]; increasing melatonin added to buspirone concentration-response curve, FIG. 11 upper panel",differentiation into neurons is preserved
cyclo(Pro-Gly) [M6],"effect on neuronal differentiation, AMPA combined with M6",[2],potentiates AMPA activity
CN1CC[C@]23c4c5ccc(O)c4O[C@H]2[C@@H](O)C=C[C@H]3[C@H]1C5 [morphine],effect on DHEA-driven normal NSC neuronal differentiation,NSC monolayer culture; simultaneous exposure with DHEA,inhibition of normal NSC differentiation
NC[C@H](O)c1ccc(O)c(O)c1 [norepinephrine],"effect on differentiation along an astrocyte lineage (astrogenesis), agent alone",[1],no effect
same,EC50,"[2]; mean of two independent experiments, FIG. 3A, read-out: EC50, neuronal differentiation, agent by itself",~4 µM
same,"effect on differentiation along a neuronal lineage, agent by itself",[2],significantly enhanced neuronal differentiation
NCCc1c[nH]cn1 [histamine],"cell proliferation / cell growth (cell number), trophic effect",[3],promotes increased cell proliferation
same,"cell proliferation / cell growth (cell number), trophic effect",[3]; listed as Histamine,promoted cell growth in a concentration-dependent manner
"Cc1onc(O)c1CC(N)C(=O)O (stereo not drawn) [AMPA, alpha-amino-3-hydroxy-5-methyl-4-isoxazolepropionic acid]","effect on neuronal differentiation, AMPA combined with M6",[2],significantly enhanced levels of neuronal differentiation
same,concentration at which the agent by itself affected neuronal differentiation,[2],about 30 μM
same,"effect on differentiation along a neuronal lineage, agent by itself",[2],only a slight effect
NCCc1ccc(O)c(O)c1 [dopamine],effect on NSC proliferation (mean cell intensity) with 10 μM 5-HTP,[4]; in the presence of 10 μM 5-HTP,substantially enhanced
same,effect on NSC proliferation (mean cell intensity) with 30 μM 5-HTP,"[4]; in the presence of 30 μM 5-HTP, particularly at higher test agent concentrations",further enhanced
same,"effect on NSC proliferation (mean cell intensity), test agent alone",[4]; media-only background subtracted,small dose-dependent effect
same,concentration at which the agent by itself affected neuronal differentiation,[2],≥ 1 µM
same,"effect on differentiation along a neuronal lineage, agent by itself",[2],minor effect; also recorded: only a slight effect
same,"effect on differentiation along a neuronal lineage, agent by itself",[2]; listed as Dopamine,did not promote differentiation
same,effect on neuronal differentiation in combination with 5-HTP as constitutive factor,"[2]; plus 10 μM or 30 μM 5-HTP, FIG. 4B",concentration-dependent increase in NSC differentiation; also recorded: significantly enhanced neuronal differentiation
CC(N)Cc1ccccc1 (stereo not drawn) [amphetamine],EC50,"[2]; plus 10 μM dopamine, FIG. 2B, read-out: EC50, neuronal differentiation in combination with dopamine",~30 µM
same,"effect on differentiation along a neuronal lineage, agent by itself",[2],did not have a significant effect
same,effect on neuronal differentiation in combination with dopamine as constitutive factor,[2]; plus 10 μM dopamine,significantly enhanced neuronal differentiation
C[C@]12CC[C@H](O)CC1=CC[C@@H]1[C@@H]2CC[C@]2(C)C(=O)CC[C@@H]12 [DHEA],"effect on differentiation along a neuronal lineage, agent by itself",[2],promotes differentiation
O=C1CC[C@@]2(O)[C@H]3Cc4ccc(O)c5c4[C@@]2(CCN3CC2CC2)[C@H]1O5 [naltrexone],rescue of morphine-inhibited neuronal differentiation,"NSC monolayer culture; cells exposed to both morphine and naltrexone, FIG. 10",rescue of neurogenesis; also recorded: rescues opioid-induced inhibition
same,toxicity or proliferation (cell number dose-response),[5],non-neurogenic (non-tropic) and non-toxic; also recorded: neither toxic nor trophic
"N[C@@H](Cc1c[nH]c2ccc(O)cc12)C(=O)O [5-HTP, 5-Hydroxy L tryptophan]",concentration at which the agent by itself affected neuronal differentiation,[2],≥ 4 µM
same,"effect on differentiation along a neuronal lineage, agent by itself",[2],increased differentiation of NSCs into neurons; also recorded: significantly enhanced neuronal differentiation
